Test results taken from publication PMC11286609, “In vitro and in vivo analyses of eFAP: a novel FAP-targeting small molecule for radionuclide theranostics and other oncological interventions” (EJNMMI Radiopharmacy and Chemistry, 2024).

Experiments:
huFAP = target: T1, huFAP (Homo sapiens, UniProt Q12884); assay: Recombinant enzymatic inhibition assay, huFAP (Z-Gly-Pro-AMC); type: biochemical; settings: n = 3, picture: nM ± 95% CI
T1 sequence (Q12884 1-760): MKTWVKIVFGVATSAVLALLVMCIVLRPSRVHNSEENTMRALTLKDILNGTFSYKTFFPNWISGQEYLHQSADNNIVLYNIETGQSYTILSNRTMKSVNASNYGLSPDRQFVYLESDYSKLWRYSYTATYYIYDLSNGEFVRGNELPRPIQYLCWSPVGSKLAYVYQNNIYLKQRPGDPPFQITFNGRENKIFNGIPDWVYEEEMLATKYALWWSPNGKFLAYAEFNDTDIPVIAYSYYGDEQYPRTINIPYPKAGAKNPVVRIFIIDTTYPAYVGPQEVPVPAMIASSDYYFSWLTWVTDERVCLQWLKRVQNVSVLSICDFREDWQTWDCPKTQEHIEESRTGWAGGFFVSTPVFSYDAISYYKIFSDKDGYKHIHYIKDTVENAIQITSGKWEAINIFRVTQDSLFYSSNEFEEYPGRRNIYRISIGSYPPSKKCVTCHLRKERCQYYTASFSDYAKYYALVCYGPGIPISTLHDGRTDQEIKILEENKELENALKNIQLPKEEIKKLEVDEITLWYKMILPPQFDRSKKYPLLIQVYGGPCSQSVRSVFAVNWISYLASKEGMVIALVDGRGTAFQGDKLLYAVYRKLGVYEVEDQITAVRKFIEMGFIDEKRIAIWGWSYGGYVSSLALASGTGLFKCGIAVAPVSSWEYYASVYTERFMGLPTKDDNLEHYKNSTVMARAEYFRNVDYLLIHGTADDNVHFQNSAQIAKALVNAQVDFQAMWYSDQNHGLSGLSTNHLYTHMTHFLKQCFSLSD
Procedure: (§1) All enzymatic assays were performed in black 384-well plates, and enzymatic activity was measured on a microplate reader, monitoring the fluorescence at λEX 350 nm/λEM 485 nm. […] Val-boroPro (10^− 4 M) and assay buffer served as a positive and negative control, respectively. To measure inhibition of PREP, 50 µL of the reaction mixture containing 1 µM Z-Gly-Pro-AMC and 10 ng PREP (R&D Systems; Minneapolis, MN, USA) were used. The enzymatic assay of DPP4 contained substrate (100 µM), DPP4 (Abcam; Cambridge, UK) (10 nM), assay buffer, and increasing concentrations of the inhibitors (10^− 10 M to 10^− 4 M). Sitagliptin (10^− 4 M) and assay buffer were used as a positive and negative control, respectively. H-Gly-Pro-AMC (100 µM) in assay buffer was used as a baseline control. The plates were analyzed in a Hidex Sense Microplate reader (Hidex; Turku, Finland) at 37 °C under dark conditions for 1 h (huFAP), 2 h (muFAP), or 30 min (PREP, DPP4). For all assays, the components were kept on ice before plating.
(§2) All statistical analyses were performed with GraphPad Prism version 9.0 (San Diego, California USA). All IC50 values were determined using a non-linear regression Log(inhibitor) vs. response analysis with variable slope (four parameters). For the in vivo results outliers were identified by a ROUT test (Q = 1%) and excluded. Next, a two-tailed student’s t-test was performed (*p < 0.05, **p < 0.01, ***p < 0.001). All experiments were performed in triplicate and repeated at least three times.

muFAP = target: T2, muFAP (Mus musculus, UniProt P97321); assay: Recombinant enzymatic inhibition assay, muFAP (Z-Gly-Pro-AMC); type: biochemical, murine; settings: n = 3, picture: nM ± 95% CI
T2 sequence (P97321 1-761): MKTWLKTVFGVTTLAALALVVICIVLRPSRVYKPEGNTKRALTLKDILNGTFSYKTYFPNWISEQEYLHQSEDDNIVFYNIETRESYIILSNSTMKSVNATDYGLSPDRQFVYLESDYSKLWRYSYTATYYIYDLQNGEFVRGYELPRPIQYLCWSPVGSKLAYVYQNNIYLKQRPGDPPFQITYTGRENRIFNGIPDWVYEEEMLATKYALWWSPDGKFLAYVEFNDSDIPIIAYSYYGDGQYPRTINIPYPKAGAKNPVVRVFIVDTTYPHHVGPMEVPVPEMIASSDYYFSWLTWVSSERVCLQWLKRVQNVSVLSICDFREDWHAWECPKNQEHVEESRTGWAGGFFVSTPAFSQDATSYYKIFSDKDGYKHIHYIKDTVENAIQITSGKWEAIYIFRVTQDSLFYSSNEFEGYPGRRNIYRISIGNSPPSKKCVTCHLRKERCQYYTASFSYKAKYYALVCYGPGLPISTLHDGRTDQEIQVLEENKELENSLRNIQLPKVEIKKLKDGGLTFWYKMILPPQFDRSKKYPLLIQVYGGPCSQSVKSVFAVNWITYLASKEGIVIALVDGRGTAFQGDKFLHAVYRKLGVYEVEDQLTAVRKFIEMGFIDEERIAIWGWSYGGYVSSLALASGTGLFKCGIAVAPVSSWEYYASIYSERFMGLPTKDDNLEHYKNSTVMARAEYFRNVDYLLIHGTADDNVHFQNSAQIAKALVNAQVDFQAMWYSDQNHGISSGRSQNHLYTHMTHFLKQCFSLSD
Procedure: as §1, §2

[1] = target: T3, prolyl oligopeptidase (PREP) (Homo sapiens, UniProt P48147); assay: Enzymatic inhibition assay, PREP; type: biochemical; settings: for IC50: recombinant PREP, n = 3, picture: nM ± 95% CI; for SI PREP/huFAP: selectivity index, IC50 PREP / IC50 huFAP
T3 construct: purchased R&D Systems
T3 sequence (P48147 1-710): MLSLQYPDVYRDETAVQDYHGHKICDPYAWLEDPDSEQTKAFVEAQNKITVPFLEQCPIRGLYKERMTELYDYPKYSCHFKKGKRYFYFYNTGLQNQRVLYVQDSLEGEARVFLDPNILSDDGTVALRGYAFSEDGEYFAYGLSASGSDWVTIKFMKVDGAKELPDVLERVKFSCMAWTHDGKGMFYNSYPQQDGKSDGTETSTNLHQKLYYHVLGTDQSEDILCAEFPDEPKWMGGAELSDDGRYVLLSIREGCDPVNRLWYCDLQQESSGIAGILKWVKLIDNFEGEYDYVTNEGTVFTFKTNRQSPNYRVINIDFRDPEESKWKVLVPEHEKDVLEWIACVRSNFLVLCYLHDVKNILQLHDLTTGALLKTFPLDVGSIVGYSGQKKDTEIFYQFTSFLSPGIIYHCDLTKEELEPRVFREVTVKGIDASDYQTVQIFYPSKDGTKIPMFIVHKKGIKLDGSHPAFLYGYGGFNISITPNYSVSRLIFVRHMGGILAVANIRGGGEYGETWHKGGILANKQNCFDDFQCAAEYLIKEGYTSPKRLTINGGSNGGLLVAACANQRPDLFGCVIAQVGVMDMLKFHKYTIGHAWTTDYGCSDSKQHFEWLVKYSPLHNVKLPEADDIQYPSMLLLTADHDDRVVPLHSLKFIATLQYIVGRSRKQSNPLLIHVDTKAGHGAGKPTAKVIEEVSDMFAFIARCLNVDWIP
Procedure: as §1, §2

Row | IC50 (huFAP) | IC50 (muFAP) | IC50 [1] | SI PREP/huFAP [1] | Structure (SMILES)
1 | 3.87 ± 2.7 nM | 1.55 ± 1.2 nM | 3480 ± 172 nM |  | CN(CCCN1CCN(C(=O)CN2CCN(CC(=O)O)CCN(CC(=O)O)CCN(CC(=O)O)CC2)CC1)c1ccc2nccc(C(=O)NCC(=O)N3CC(F)(F)C[C@H]3C#N)c2c1 [FAPI-46, reference compound]
2 | 1.16 ± 0.04 nM | 0.58 ± 0.02 nM | 161 ± 53.6 nM | 138.6 | N#C[C@@H]1CC(F)(F)CN1C(=O)CNC(=O)c1ccnc2c(OCCCNC(=O)CN3CCN(CC(=O)O)CCN(CC(=O)O)CCN(CC(=O)O)CC3)cccc12 [eFAP-6, (S)-2,2',2''-(10-(2-((3-((4-((2-(2-cyano-4,4-difluoropyrrolidin-1-yl)-2-oxoethyl)carbamoyl)quinolin-8-yl)oxy)propyl)amino)-2-oxoethyl)-1,4,7,10-tetraazacyclododecane-1,4,7-triyl)triacetic acid]
3 | 4.23 ± 0.5 nM | 4.56 ± 0.2 nM | 475 ± 104 nM | 112.3 | CN1/C(=C/C=C/C=C/C2=[N+](CCCCCC(=O)NCCCOc3cccc4c(C(=O)NCC(=O)N5CC(F)(F)C[C@H]5C#N)ccnc34)c3ccc(S(=O)(=O)[O-])cc3C2(C)C)C(C)(C)c2cc(S(=O)(=O)O)ccc21 [eFAP-7, 1-(6-((3-((4-((2-((S)-2-cyano-4,4-difluoropyrrolidin-1-yl)-2-oxoethyl)carbamoyl)quinolin-8-yl)oxy)propyl)amino)-6-oxohexyl)-3,3-dimethyl-5-sulfo-2-((1E,3E)-5-((E)-1,3,3-trimethyl-5-sulfoindolin-2-ylidene)penta-1,3-dien-1-yl)-3H-indol-1-ium]
